Measurements: patent publication US9351959B2, “Alpha adreneric receptor agonists for treatment of degenerative disc disease” (WARSAW ORTHOPEDIC INC., priority 2008, dated 2016)

Test system: Rat Chronic Constriction Injury Model
Conditions: 0.02 mg/kg/day subcutaneously; compared to unloaded polymer depots; FIG. 4
Excerpt: The inventors evaluated the efficacy of a five Month Clonidine/Polymer Drug Depot in the Rat Chronic Constriction Injury Model. The animal model was the Bennett Model (Wistar rat). The purpose: To determine whether a five month polymer clonidine-eluting depot can improve pain associated behavioral responses in a rat model of neuropathic pain.
Experimental Design: Four loose chromic gut ligatures, 1 mm apart, were tied around the common sciatic nerve at mid-thigh. Each animal received treatment of test or control article—according to the dosing described in Table 5.
The inventors have conducted the present study for a period of 64 days and have employed the following two tests: (1) the Hargreaves test; and (2) the von Frey test. The Hargreaves Tests of Thermal Hyperalgesia were conducted on days 7, 14, 21, 28, 35, 42, 49, 56 and 63. The von Frey monofilament test of mechanical allodynia (performed the day following Thermal testing) were conducted on days-8, 15, 22, 29, 36, 43, 50, 57 and 64.

Q: For `Clc1cccc(Cl)c1N=C1NCCN1` [clonidine, 2,6-dichloro-N-2-imidazolidinyldenebenzenamine], which “pain behavioral response (measured as a percentage of baseline) for mechanical allodynia” value is on record?
A: reduced the behavioral response
